Several values for one entry are separate records, joined by “and”; a condition that tells them apart may be missing. Equal values may be shown once.

For the assay, the system named is 521955-158-R2-J5-PDC spheroids with stroma, growth inhibition. The experiment in a line: Anticancer human tumor 521955-158-R2-J5-PDC patient-derived pancreatic carcinoma cell line growth inhibition [TAK]. Particulars: for viability, T/C: stronger effect = lower value. From the text:
Combinatorial screen of targeted agents with TAK-243 and ipatasertib in multi-cell type tumor spheroids
A high-throughput screen of multi-cell type tumor spheroids was designed to identify active combinations of targeted small molecules and TAK-243 or ipatasertib. Complex spheroids include a stromal component modeled by human endothelial cells (HUVEC) and fibroblasts modeled by human mesenchymal stem cells (MSCs). The concentration ranges selected for each drug and investigational agent were based upon clinically achievable concentrations if the clinical Cmax of the agent was known.
Compounds. The drugs and investigational agents: TAK-243 (785004), ipatasertib (767898), everolimus (733504), selumetinib (741078), bortezomib (756655), trametinib (758246), ixazomib (758254), vemurafenib (761431), dabrafenib (764134), sapanisertib (764658), alpelisib (765974), and copanlisib (816437), were obtained from the National Cancer Institute (NCI) Developmental Therapeutics Program Chemical Repository. The FDA-approved anticancer drug set is available from the NCI Developmental Therapeutics Program. […] The stock solutions were prepared in dimethyl sulfoxide (DMSO, Sigma-Aldrich, St. Louis, MO, cat. D2650) at 800-fold the tested concentration and stored at -70 degrees C prior to their use. All drugs and investigational agents were tested over a range starting from a high concentration at or near the clinical Cmax and decreasing in half-log increments. If the clinical Cmax for an agent had not been determined, the highest concentration tested was 10 microM.
NCI60 Cell Culture. NCI60 cell lines were obtained from the NCI Developmental Therapeutics Program Tumor Repository. For each lot of cells, the Repository performed Applied Biosystems AmpFLSTR Identifiler testing with PCR amplification to confirm consistency with the published Identifier STR profile for each cell line. Cells were kept in continuous culture for no more than 20 passages. The optimal seeding densities for each of the cell lines at each time point assessed were determined prior to performing the concentration response studies. Briefly, the NCI60 human tumor lines were grown as monolayers in RPMI 1640 medium supplemented with 10% FBS and 2 mmol/L L-glutamine.
An additional 2 lines were from the NCI60 cell line panel including melanomas, MALME-3M and SK-MEL-2. Pooled donor human umbilical vein endothelial cells (HUVEC, Lonza, cat. CC-2519) and human mesenchymal stem cells (hMSC, Lonza, cat. PT-2501) were purchased from Lonza (Walkersville, MD).
PDMR cell lines were grown in complete medium (DC medium): Dulbecco's modified Eagle's medium (DMEM)/F12 supplemented with 5% fetal bovine serum (FBS), 2 mM L-glutamine, 100 U/mL penicillin and 100 µg/ml streptomycin, 0.4 µg/ml hydrocortisone, 10 ng/ml epidermal growth factor (EGF) recombinant human protein, 24 µg/mL adenine, and 0.1 mg/mL primocin. During culture from frozen stock vials, PDMR cells were cultured in the same medium containing 10 µM Y-27632 (see Table 3). The PDCs were cultured in complete DMEM/F12 media without 10 microM Y-27632 dihydrochloride for at least two passages prior to the screen. The pooled donor HUVEC and hMSC were cultured in endothelial cell growth medium 2 (PromoCell, Heidelberg, Germany, cat. C-22011) and mesenchymal stem cell growth medium 2 (PromoCell, cat. C-28009), respectively. For all experiments, HUVEC and hMSC were used at passages </=5.
For the pre-screen, cell seeding densities were determined from a titration spanning the range from 5,000 to 313 cells per well. The mct-spheroids including 60% malignant cells, 25% HUVEC and 15% MSC dispensed as a mixture into U-bottom Ultra-Low Attachment 384-well plates (Corning, NY)
High-throughput Drug Combination Screening.
Prior to their inoculation into 384-well plates, malignant cells, HUVEC, and hMSC were removed from T flasks using TrypLE express (Thermo Fisher Scientific, cat. 12605036) and harvested by centrifugation for 5 min at 233 x g. […]

Where [1] appears, read: curve of first compound, second compound 0.3 µM.
[2] abbreviates: curve of first compound, second compound 0.949 µM.
[3] abbreviates: curve of first compound, second compound 3 µM.
The mark [4] stands for this setting: curve of first compound, second compound 9.49 µM.
The mark [5] stands for this setting: curve of first compound, second compound 30 µM.
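Also: spheroids exposed to drugs for seven days before readout.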

The IC50 is the concentration that inhibits the measured activity by half. One may read the viability, T/C as the ratio of treated to control. For the compound `CC(C)(C)c1nc(-c2cccc(NS(=O)(=O)c3c(F)cccc3F)c2F)c(-c2ccnc(N)n2)s1` + CC(C)NCC(C(=O)N1CCN(c2ncnc3c2C(C)CC3O)CC1)c1ccc(Cl)cc1, the IC50 is more than 10 µM under setting [1]; 9.73 µM under setting [2]; 6.27 µM under setting [3]; 4.96 µM under setting [4]; 1.07 µM under setting [5]. Besides, the viability, T/C by setting is: (second compound 0.3 µM, first compound 0.0316 µM) 115%; (second compound 0.3 µM, first compound 0.1 µM) 135%; (second compound 0.3 µM, first compound 0.316 µM) 135%; (second compound 0.3 µM, first compound 1 µM) 134%; (second compound 0.3 µM, first compound 3.16 µM) 96.8%; (second compound 0.3 µM, first compound 10 µM) 60.3%. Also, the viability, T/C is 116% (second compound 0.949 µM, first compound 0.0316 µM); 117% (second compound 0.949 µM, first compound 0.1 µM); 109% (second compound 0.949 µM, first compound 0.316 µM); 100% (second compound 0.949 µM, first compound 1 µM); 79.5% (second compound 0.949 µM, first compound 3.16 µM); 49.1% (second compound 0.949 µM, first compound 10 µM). Moreover, the viability, T/C reads like this: (second compound 3 µM, first compound 0.0316 µM) 89.8%; (second compound 3 µM, first compound 0.1 µM) 93.8%; (second compound 3 µM, first compound 0.316 µM) 72.2%; (second compound 3 µM, first compound 1 µM) 92.1%; (second compound 3 µM, first compound 3.16 µM) 75.4%; (second compound 3 µM, first compound 10 µM) 32.8%. For the same compound, the viability, T/C by setting is: (second compound 9.49 µM, first compound 0.0316 µM) 92.3%; (second compound 9.49 µM, first compound 0.1 µM) 83.9%; (second compound 9.49 µM, first compound 0.316 µM) 65.1%; (second compound 9.49 µM, first compound 1 µM) 66.2%; (second compound 9.49 µM, first compound 3.16 µM) 71.4%; (second compound 9.49 µM, first compound 10 µM) 33.4%. For the same compound, the viability, T/C (second compound 30 µM, first compound 0.0316 µM) was 59.7%; the viability, T/C (second compound 30 µM, first compound 0.1 µM) is 56.7%; the viability, T/C (second compound 30 µM, first compound 0.316 µM) is 50.9%; the viability, T/C (second compound 30 µM, first compound 1 µM) was 51.2%; the viability, T/C (second compound 30 µM, first compound 3.16 µM) is 44.8%; the viability, T/C (second compound 30 µM, first compound 10 µM) was 28.7%.
On to `Cn1cnc2c(F)c(Nc3ccc(Br)cc3Cl)c(C(=O)NOCCO)cc21` + CC(C)NCC(C(=O)N1CCN(c2ncnc3c2C(C)CC3O)CC1)c1ccc(Cl)cc1, for which the IC50 is 0.0257 µM under setting [1]; less than 0.00949 µM under setting [2]; less than 0.00949 µM under setting [3]; 0.0202 µM under setting [4]; less than 0.00949 µM under setting [5]. In addition, the viability, T/C reads like this: (second compound 0.3 µM, first compound 0.00949 µM) 64.4%; (second compound 0.3 µM, first compound 0.03 µM) 42.6%; (second compound 0.3 µM, first compound 0.0949 µM) 36.7%; (second compound 0.3 µM, first compound 0.3 µM) 38.3%; (second compound 0.3 µM, first compound 0.949 µM) 27.7%; (second compound 0.3 µM, first compound 3 µM) 20.4%. The viability, T/C is, setting by setting: (second compound 0.949 µM, first compound 0.00949 µM) 48.9%; (second compound 0.949 µM, first compound 0.03 µM) 38.9%; (second compound 0.949 µM, first compound 0.0949 µM) 28.5%; (second compound 0.949 µM, first compound 0.3 µM) 20.9%; (second compound 0.949 µM, first compound 0.949 µM) 15.8%; (second compound 0.949 µM, first compound 3 µM) 5.06%. Further, the viability, T/C is 44.8% (second compound 3 µM, first compound 0.00949 µM); 38.5% (second compound 3 µM, first compound 0.03 µM); 28.6% (second compound 3 µM, first compound 0.0949 µM); 25% (second compound 3 µM, first compound 0.3 µM); 14.1% (second compound 3 µM, first compound 0.949 µM); 5.64% (second compound 3 µM, first compound 3 µM). Moreover, the viability, T/C (second compound 9.49 µM, first compound 0.00949 µM) is 61%; the viability, T/C (second compound 9.49 µM, first compound 0.03 µM) is 45%; the viability, T/C (second compound 9.49 µM, first compound 0.0949 µM) is 29%; the viability, T/C (second compound 9.49 µM, first compound 0.3 µM) was 21.3%; the viability, T/C (second compound 9.49 µM, first compound 0.949 µM) was 13.5%; the viability, T/C (second compound 9.49 µM, first compound 3 µM) was 5.67%. The viability, T/C (second compound 30 µM, first compound 0.00949 µM) was 40.2%; the viability, T/C (second compound 30 µM, first compound 0.03 µM) was 21.9%; the viability, T/C (second compound 30 µM, first compound 0.0949 µM) was 17.9%; the viability, T/C (second compound 30 µM, first compound 0.3 µM) was 10%; the viability, T/C (second compound 30 µM, first compound 0.949 µM) is 3.77%; the viability, T/C (second compound 30 µM, first compound 3 µM) was 1.5%.
For `CC(C)(C)c1nc(-c2cccc(NS(=O)(=O)c3c(F)cccc3F)c2F)c(-c2ccnc(N)n2)s1`, the viability, T/C is 102% and 112% (compound 0.0316 µM); 112% and 117% (compound 0.1 µM); 140% and 170% (compound 0.316 µM); 160% and 186% (compound 1 µM); 114% and 125% (compound 3.16 µM); 88.9% and 92.2% (compound 10 µM). Under “curve of compound”, the IC50 is more than 10 µM.
In the case of `CC(C)NCC(C(=O)N1CCN(c2ncnc3c2C(C)CC3O)CC1)c1ccc(Cl)cc1` (configuration not stated), the viability, T/C is 101% [middle of 10 runs] (compound 0.3 µM), 81.5% [middle of 10 runs] (compound 0.949 µM), 82.7% [middle of 10 runs] (compound 3 µM) and 56.5% [middle of 10 runs] (compound 30 µM). Further, for the setting “compound alone, run of 02/20/2020”, the IC50 was more than 30 µM.

Source of the values: PubChem BioAssay AID2060353 (Molecular Pharmacology Branch, DTP, NCI, 2025).
